Columns and labels:
MES induced seizures = assay: Maximal electroshock (MES) anticonvulsant test, ip; format: in vivo, male Carworth Farms no. 1 mice
Protocol: (§1) Biological Testing--Compounds were screened for anticonvulsant activity in male Carworth Farms no. 1 mice. The maximal electroshock (MES), subcutaneous Metrazol (pentylenetetrazole) (Met), and threshold tonic extension (TTE) tests were used to evaluate compounds for anticonvulsive activity. A rotorod protocol was used to determine neurotoxicity. Solutions for injection were prepared in 30% polyethylene glycol 400. Except for the TTE tests, animals were dosed ip at two different time periods: either 30 min. or 4 hr prior to testing. At each time period, three groups of four mice were tested at the following dose levels: 30, 100, and 300 mg/kg. This treatment protocol was followed for MES, Met, and rotorod testing.
Maximal electroshock (MES) induced seizures were elicited with a 60 cycle alternating current of 50 mA intensity (five to seven times the intensity necessary to evoke minimal electroshock threshold seizures). Current was delivered via corneal electrodes for 0.2 sec. A drop of 0.9% saline was instilled in the eye prior to application of the electrodes. Abolition of the hindlimb tonic extension component of the seizure was defined as protection.

[1] = Rotorod test for drug induced neurological deficit (neurotoxicity), ip; format: in vivo, male Carworth Farms no. 1 mice; conditions: neurotoxicity, 30 min or 4 hr, 30, 100, 300 mg/kg, bracketed = maximum ineffective dose (given as >), unbracketed = effective (neurotoxic) dose (=)
Protocol: as §1
Animals were tested for drug induced neurological deficit using a rotorod. Either 30 min. or 4 hr after treatment, the animal was placed on a 1-inch diameter knurled plastic rod rotating at 6 rpm. Neurological deficit was defined as the failure of the animal to remain on the rod for 1 min.

[2] = biological target: glycine binding site on the NMDA receptor; conditions: [^3 H]-labeled ligand; cited from earlier work
[^3 H]-MK 801 binding = cited from earlier work
[3] = tested on: recognition site presumed to be located within the ion channel of the receptor complex; conditions: cited from earlier work
[4] = tested on: NMDA receptor glycine binding; conditions: cited from earlier work

## COc1cccc(N(C(=O)Nc2cc(C(=O)O)nc3cc(Cl)cc(Cl)c23)c2ccccc2)c1 [Compound 12]
MES induced seizures
  MES activity: demonstrated activity
[1]
  Rotorod: effective or [maximum ineffective] intraperitoneal dose: > 300 mg/kg

## O=C(O)c1cc(O)c2c(Cl)cc(Cl)cc2n1 [[^3 H]-5,7-dichlorokynurenic acid]
[2]
  Kd: 0.029 µM

## CN(C)C(=O)Nc1cc(C(=O)O)nc2cc(Cl)cc(Cl)c12 [Compound 5]
MES induced seizures
  MES activity: demonstrated activity
[1]
  Rotorod: effective or [maximum ineffective] intraperitoneal dose: > 300 mg/kg

## O=C(O)c1cc(O)c2ccc(Cl)cc2n1 [7-chlorokynurenic acid]
[^3 H]-MK 801 binding; 1 uM
  effect at 1 uM on [^3 H]-MK 801 binding: little effect
[^3 H]-MK 801 binding; [^3 H]-MK 801, depending on brain region, read-out: IC50 (inhibition concentration)
  IC50: 30 to 40 µM
[3]
  effect on binding of phencyclidine-like compounds: decrease binding
[4]
  inhibition of glycine binding: competitive inhibitor of glycine binding

Reference: patent US5783700A, “Quinolic acid derivatives” (priority 1997, dated 1998)
